Results on 5 compounds are retold here after patent US20250092065A1, “2-(INDAZOL-5-YL)-6-(PIPERIDIN-4-YL)-1,7-NAPHTHYRIDINE DERIVATIVES AND RELATED COMPOUNDS AS MODULATORS FOR SPLICING NUCLEIC ACIDS AND FOR THE TREATMENT OF PROLIFERATIVE DISEASES” (REMIX THERAPEUTICS INC., priority 2022, published 2025).

One data set deals with K562 cells. Briefly: Cell Titer Glo 2.0 cell viability (toxicity) assay, K562. To be noted: 500 cells/well, 72 hours. On the technique in general: Cellular ATP, detected with luciferase, serves as a proxy for viable cell number.
Another data set concerns HTT. Kind of data set: HiBiT protein abundance assay, HTT (K562 HiBiT knock-in). Type of data set: cell-based, human. To be noted: HiBiT knock-in K562 cells, 24 hours, top dose 10 μM. An outline of the steps: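 Endogenously HiBiT-tagged K562 lines were treated for 24 h at 37 °C with 10-point 3-fold dilutions (top 10 μM final, DMSO ≤0.25%). Lytic LgBiT complementation luminescence was normalized between unmodified K562 (PC) and DMSO-treated tagged cells (NC); IC50 was interpolated at 50% from a four-parameter logistic fit.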

Another data set deals with Target C. Briefly: HiBiT protein abundance assay, Target C (K562 HiBiT knock-in). To be noted: HiBiT knock-in K562 cells, 24 hours, top dose 10 μM. Type of data set: cell-based, human. An outline of the steps: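 K562 HiBiT knock-in cells (10000/well) were treated 24 h at 37° C with a 10-point 3-fold dilution series (top 10 μM final, ≤0.25% DMSO). HiBiT luminescence was read after lytic LgBiT detection. Percent response used unmodified K562 and DMSO-treated knock-in controls, and IC50 came from a four-parameter fit at 50% of untreated.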
(In general: HiBiT is a short tag that completes a luciferase, so light tracks the accessible tagged protein.)

In a further data set the test system is SMN2 mRNA. Briefly: RT-qPCR splicing assay, SMN2 mRNA. The note with it: Homo sapiens, canonical junction qPCR panel, Table 4; read-out: SMN2 IC50 (decrease in CJ mRNA levels). In kind it is cell-based, human. An outline of the steps:
(§1)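 Junction-specific RT-qPCR read-out: CJ and AJ isoform levels, housekeeper-normalized (GAPDH/GUSB/PPIA), ΔΔCt vs DMSO, converted to RQ then % response. Cells: A673 (DMEM/10% FBS, adhered 24 h) or K562 (IMDM/10% FBS). Compound 11-pt 3-fold, top 10 uM, 24 h, 37 °C.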
A general note: In qPCR the cycle at which signal appears reflects the starting amount.

The subject of another data set is MYB mRNA. Briefly: RT-qPCR splicing assay, MYB mRNA canonical (CJ) and alternative (AJ) junction. Type of data set: cell-based, human. The note with it: Homo sapiens; for AC50: MYB alternative junction mRNA increase, read-out: MYB AJ (increase in alternative junction mRNA, AC50). An outline of the steps: as §1
The mark [1] stands for this setting: RT-qPCR, MYB canonical junction mRNA decrease, read-out: MYB CJ (decrease in canonical junction mRNA, IC50).
Where [2] appears, read: canonical junction qPCR panel, Table 4, read-out: MYB IC50 (decrease in CJ mRNA levels).

Where a name gives a salt, the structure may show the parent alone. Read-outs that look alike come from different tables or passages of the source.

As for `C[C@@H]1CN(c2cc(F)c3nc(-c4cc5cn(C)nc5c(F)c4O)ccc3c2)C[C@H](C)N1` [Compound 763, 5-{6-[(3R,5S)-3,5-dimethylpiperazin-1-yl]-8-fluoroquinolin-2-yl}-7-fluoro-2-methylindazol-6-ol hydrochloride], the “Effect of Exemplary Compounds on Cell Viability, K562” value (from here on “Effect of Exemplary Compounds”) with K562 cells was “A (A represents <100 nM)”. For the same compound, the IC50 in the data set with HTT, in the data set on Target C, in the data set with SMN2 mRNA, in the data set with MYB mRNA (setting [1]) and with MYB mRNA (setting [2]) was below 100 nM throughout. For the same compound, the AC50 in the data set on MYB mRNA (RT-qPCR) is below 100 nM.

Turning to `C[C@@H]1CN(c2cc(F)c3nc(-c4cc5cn(C)nc5cc4O)ccc3c2)C[C@H](C)N1` [Compound 768, 5-{6-[(3R,5S)-3,5-dimethylpiperazin-1-yl]-8-fluoroquinolin-2-yl}-2-methylindazol-6-ol hydrochloride], the “Effect of Exemplary Compounds” value in the data set with K562 cells is on record as “C (C represents 1000-9999 nM)”. Further, the IC50 in the data set on HTT is 1000 to 10000 nM; in the data set on Target C it was 1000 to 10000 nM; in the data set with SMN2 mRNA it was below 100 nM; with MYB mRNA (setting [1]), 100 to 1000 nM; in the data set on MYB mRNA (setting [2]), 100 to 1000 nM. Besides, the half-maximal activity concentration (AC50) in the data set on MYB mRNA (RT-qPCR) lay in the range of 100 to 1000 nM.

For the compound `Cc1cn2cc(-c3ncc4cc(N5C[C@@H](C)N[C@@H](C)C5)ccc4n3)cc(F)c2n1` [Compound 773, 6-[(3R,5S)-3,5-dimethylpiperazin-1-yl]-2-{8-fluoro-2-methylimidazo[1,2-a]pyridin-6-yl}quinazoline], in the data set with K562 cells, the “Effect of Exemplary Compounds” value is “B (B represents 100-1000 nM)”. Further, the IC50 is 100 to 1000 nM in the data set on HTT; 100 to 1000 nM with Target C; below 100 nM with SMN2 mRNA; below 100 nM in the data set on MYB mRNA (setting [1]); below 100 nM in the data set with MYB mRNA (setting [2]). The AC50 in the data set with MYB mRNA (RT-qPCR) was below 100 nM.

Take `Cc1cn2cc(-c3nc(C(=O)NC4CCC4)c4cc(N5C[C@@H](C)N[C@@H](C)C5)ccc4n3)cc(F)c2n1` [Compound 779, N-cyclobutyl-6-[(3R,5S)-3,5-dimethylpiperazin-1-yl]-2-{8-fluoro-2-methylimidazo[1,2-a]pyridin-6-yl}quinazoline-4-carboxamide]: in the data set with K562 cells, the “Effect of Exemplary Compounds” value is listed as “A (A represents <100 nM)”. Further, the IC50 was 100 to 1000 nM in the data set with HTT; 100 to 1000 nM in the data set on Target C; below 100 nM in the data set on SMN2 mRNA; below 100 nM in the data set on MYB mRNA (setting [1]); below 100 nM in the data set with MYB mRNA (setting [2]). Besides, in the data set on MYB mRNA (RT-qPCR), the AC50 was below 100 nM.

Turning to `Cc1cn2cc(-c3ncc4cc(N5C[C@H](C)N[C@@H](C)C5)ccc4n3)cc(F)c2n1` [Compound 803, 6-[(3S,5S)-3,5-dimethylpiperazin-1-yl]-2-{8-fluoro-2-methylimidazo[1,2-a]pyridin-6-yl}quinazoline], in the data set with K562 cells, the “Effect of Exemplary Compounds” value is “A (A represents <100 nM)”. The IC50 was 100 to 1000 nM with HTT; 100 to 1000 nM in the data set with Target C; below 100 nM with SMN2 mRNA; below 100 nM in the data set with MYB mRNA (setting [1]); below 100 nM in the data set with MYB mRNA (setting [2]). Moreover, the AC50 with MYB mRNA (RT-qPCR) is below 100 nM.

As a reminder, the IC50 is the point on the concentration scale where inhibition reaches its midpoint. What is called AC50 is the midpoint of the concentration-response curve, whichever way the signal moves.
